Source: patent publication US11524938B2, “Aromatic sulfonamide derivatives” (Bayer Pharma Aktiengesellschaft, priority 2016, dated 2022)

Biological target: T1, human P2X4 (Homo sapiens, UniProt Q99571)
T1 sequence (Q99571 1-388): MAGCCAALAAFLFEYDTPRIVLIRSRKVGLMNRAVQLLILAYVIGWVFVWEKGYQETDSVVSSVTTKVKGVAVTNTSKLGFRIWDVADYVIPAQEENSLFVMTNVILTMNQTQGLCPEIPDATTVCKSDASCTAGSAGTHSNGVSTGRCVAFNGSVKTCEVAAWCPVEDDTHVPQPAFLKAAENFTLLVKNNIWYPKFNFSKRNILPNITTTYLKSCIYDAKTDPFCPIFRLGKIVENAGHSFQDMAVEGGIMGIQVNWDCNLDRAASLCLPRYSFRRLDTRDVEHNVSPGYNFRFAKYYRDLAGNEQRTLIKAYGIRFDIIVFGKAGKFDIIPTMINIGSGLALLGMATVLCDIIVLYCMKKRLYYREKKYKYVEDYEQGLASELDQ
Test: Human P2X4 HEK Cell FLIPR Assay
Type: cell-based
Conditions: agonist Bz-ATP at EC80; for Emax: HEK293, HEK293 cells, percentage of maximal inhibition, read-out: Human P2X4 HEK Cells (FLIPR Assay) avg Efficacy [%]; for IC50: HEK293 cells, individual values listed where some fall outside detection range
Method: HEK293 cells stably expressing human P2X4 were plated in poly-D-lysine-coated 384-well plates at a seeding density of 30000 cells/well and incubated overnight. P2X4 function was assessed by measuring intracellular calcium changes using the calcium-chelating dye Fluo8-AM (Molecular Devices) on a fluorescent imaging plate reader (FLEX/FLIPR station; Molecular Devices). On the day of the assay, the medium was removed and the cells were incubated for 30 min at 37° C. and 5% CO2 in 30 μL of dye buffer (Hank's balanced salt solution, 10 mM HEPES, 1.8 mM CaCl2, 1 mM MgCl2, 2 mM probenecid, 5 mM D-glucose monohydrate, 5 μM Fluo8-AM, pH=7.4). Compounds diluted in probenecid buffer (Hank's balanced salt solution, 10 mM HEPES, 1.8 mM CaCl2, 1 mM MgCl2, 2 mM probenecid, 5 mM D-glucose monohydrate, pH=7.4) were added in a volume of 10 μL and allowed to incubate for 30 min at room temperature. The final assay DMSO concentration was 0.5%. The agonist, Bz-ATP (Tocris), was added in a volume of 10 μL at a concentration representing the EC80 value. The EC80 value of Bz-ATP was determined each assay day prior to compound profiling. The fluorescence was measured for an interval of 120 sec at 2 sec intervals. The excitation and emission wavelengths used to monitor fluorescence were 470-495 nm and 515-575 nm, respectively. The data was analyzed based on the increase in peak relative fluorescence units (RFU) compared to the basal fluorescence and the data was normalized to the agonist control. The compounds were tested in triplicates per plate and mean values were plotted in Excel XLFit to determine IC50 values, percentage of maximal inhibition and the Hill coefficients.

Row | Emax [%] | IC50 [nM] | Structure (SMILES)
1 | 54 | 73 | NS(=O)(=O)c1cc(NC(=O)Cc2cc(F)ccc2Cl)ccc1-n1cnc(C(F)(F)F)n1 [Example 58, 2-(2-Chloro-5-fluorophenyl)-N-{3-sulfamoyl-4-[3-(trifluoromethyl)-1H-1,2,4-triazol-1-yl]phenyl}acetamide]
2 | 73 | 4650 | NS(=O)(=O)c1cc(NC(=O)Cc2ccncc2Cl)ccc1-n1cnc(C(F)(F)F)n1 [Example 59, 2-(3-Chloropyridin-4-yl)-N-{3-sulfamoyl-4-[3-(trifluoromethyl)-1H-1,2,4-triazol-1-yl]phenyl}acetamide]
3 | 80 | 917 | NS(=O)(=O)c1cc(NC(=O)Cc2ccc(C(F)F)cc2)ccc1-n1cnc(C(F)(F)F)n1 [Example 60, 2-[4-(Difluoromethyl)phenyl]-N-{3-sulfamoyl-4-[3-(trifluoromethyl)-1H-1,2,4-triazol-1-yl]phenyl}acetamide]
4 | 79 | 400 | NS(=O)(=O)c1cc(NC(=O)C(F)(F)c2ccccc2Cl)ccc1-n1cnc(C(F)(F)F)n1 [Example 61, 2-(2-Chlorophenyl)-2,2-difluoro-N-{3-sulfamoyl-4-[3-(trifluoromethyl)-1H-1,2,4-triazol-1-yl]phenyl}acetamide]
5 | 94 | 249 | NS(=O)(=O)c1cc(NC(=O)C(F)(F)c2ccccc2Cl)ccc1-n1cc(Br)cn1 [Example 62, N-[4-(4-Bromo-1H-pyrazol-1-yl)-3-sulfamoylphenyl]-2-(2-chlorophenyl)-2,2-difluoroacetamide]
6 | 87 | 130 | NS(=O)(=O)c1cc(NC(=O)Cc2ccccc2F)ccc1-n1cc(Br)cn1 [Example 63, N-[4-(4-Bromo-1H-pyrazol-1-yl)-3-sulfamoylphenyl]-2-(2-fluorophenyl)acetamide]
7 | 83 | 104 | NS(=O)(=O)c1cc(NC(=O)Cc2ccccc2C(F)(F)F)ccc1-n1cc(Br)cn1 [Example 64, N-[4-(4-Bromo-1H-pyrazol-1-yl)-3-sulfamoylphenyl]-2-[2-(trifluoromethyl)-phenyl]acetamide]
8 | 62 | 355 | NS(=O)(=O)c1cc(NC(=O)Cc2cccc(F)c2)ccc1-n1cc(Br)cn1 [Example 65, N-[4-(4-Bromo-1H-pyrazol-1-yl)-3-sulfamoylphenyl]-2-(3-fluorophenyl)acetamide]
9 | 90 | 86 | Cc1ccccc1CC(=O)Nc1ccc(-n2cc(Br)cn2)c(S(N)(=O)=O)c1 [Example 66, N-[4-(4-Bromo-1H-pyrazol-1-yl)-3-sulfamoylphenyl]-2-(2-methylphenyl)acetamide]
10 | 98 | 1510 | NS(=O)(=O)c1cc(NC(=O)Cc2cccnc2Cl)ccc1-n1cc(Br)cn1 [Example 67, N-[4-(4-Bromo-1H-pyrazol-1-yl)-3-sulfamoylphenyl]-2-(2-chloropyridin-3-yl)-acetamide]
11 | 75 | 128 | NS(=O)(=O)c1cc(NC(=O)Cc2ccc(F)cc2Cl)ccc1-n1cc(Br)cn1 [Example 68, N-[4-(4-Bromo-1H-pyrazol-1-yl)-3-sulfamoylphenyl]-2-(2-chloro-4-fluorophenyl)-acetamide]
12 | 80 | 210 | NS(=O)(=O)c1cc(NC(=O)Cc2ccccc2OC(F)F)ccc1-n1cc(Br)cn1 [Example 69, N-[4-(4-Bromo-1H-pyrazol-1-yl)-3-sulfamoylphenyl]-2-[2-(difluoromethoxy)-phenyl]acetamide]
13 | 85 | 118 | NS(=O)(=O)c1cc(NC(=O)Cc2ccccc2OC(F)(F)F)ccc1-n1cc(Br)cn1 [Example 70, N-[4-(4-Bromo-1H-pyrazol-1-yl)-3-sulfamoylphenyl]-2-[2-(trifluoromethoxy)-phenyl]acetamide]
14 | 80 | 132 | NS(=O)(=O)c1cc(NC(=O)Cc2cc(F)c(F)cc2Cl)ccc1-n1cc(Br)cn1 [Example 71, N-[4-(4-Bromo-1H-pyrazol-1-yl)-3-sulfamoylphenyl]-2-(2-chloro-4,5-difluorophenyl)-acetamide]
15 | 96 | 576 | NS(=O)(=O)c1cc(NC(=O)Cc2ccncc2Cl)ccc1-n1cc(Br)cn1 [Example 72, N-[4-(4-Bromo-1H-pyrazol-1-yl)-3-sulfamoylphenyl]-2-(3-chloropyridin-4-yl)acetamide]
16 | 52 | 168 | NS(=O)(=O)c1cc(NC(=O)Cc2ccc(C(F)F)cc2)ccc1-n1cc(Br)cn1 [Example 73, N-[4-(4-Bromo-1H-pyrazol-1-yl)-3-sulfamoylphenyl]-2-[4-(difluoromethyl)-phenyl]acetamide]
17 | 84 | 49 | NS(=O)(=O)c1cc(NC(=O)Cc2ccccc2Br)ccc1-n1cc(Cl)cn1 [Example 74, 2-(2-Bromophenyl)-N-[4-(4-chloro-1H-pyrazol-1-yl)-3-sulfamoylphenyl]acetamide]
18 | 87 | 213 | COc1ccccc1CC(=O)Nc1ccc(-n2cc(Cl)cn2)c(S(N)(=O)=O)c1 [Example 75, N-[4-(4-Chloro-1H-pyrazol-1-yl)-3-sulfamoylphenyl]-2-(2-methoxyphenyl)acetamide]
19 | 34 | > 25000 | NS(=O)(=O)c1cc(NC(=O)Cc2ccc(Cl)cc2)ccc1-n1cc(Cl)cn1 [Example 76, 2-(4-Chlorophenyl)-N-[4-(4-chloro-1H-pyrazol-1-yl)-3-sulfamoylphenyl]acetamide]
20 | 82 | 71 | NS(=O)(=O)c1cc(NC(=O)Cc2c(F)cccc2Cl)ccc1-n1cc(Cl)cn1 [Example 77, 2-(2-Chloro-6-fluorophenyl)-N-[4-(4-chloro-1H-pyrazol-1-yl)-3-sulfamoylphenyl]-acetamide]
21 | 97 | 517 | NS(=O)(=O)c1cc(NC(=O)Cc2ccccc2[N+](=O)[O-])ccc1-n1cc(Cl)cn1 [Example 78, N-[4-(4-Chloro-1H-pyrazol-1-yl)-3-sulfamoylphenyl]-2-(2-nitrophenyl)acetamide]
22 | 78 | 2030 | NS(=O)(=O)c1cc(NC(=O)Cc2ccc(Cl)cc2Cl)ccc1-n1cc(Cl)cn1 [Example 79, N-[4-(4-Chloro-1H-pyrazol-1-yl)-3-sulfamoylphenyl]-2-(2,4-dichlorophenyl)acetamide]
23 | 96 | 79 | NS(=O)(=O)c1cc(NC(=O)Cc2c(Cl)cccc2Cl)ccc1-n1cc(Cl)cn1 [Example 80, N-[4-(4-Chloro-1H-pyrazol-1-yl)-3-sulfamoylphenyl]-2-(2,6-dichlorophenyl)acetamide]
24 | 40 | > 25000 | NS(=O)(=O)c1cc(NC(=O)Cc2ccc(F)c(F)c2)ccc1-n1cc(Cl)cn1 [Example 81, N-[4-(4-Chloro-1H-pyrazol-1-yl)-3-sulfamoylphenyl]-2-(3,4-difluorophenyl)acetamide]
25 | 36 | > 25000 | NS(=O)(=O)c1cc(NC(=O)Cc2cccc(Cl)c2)ccc1-n1cc(Cl)cn1 [Example 82, 2-(3-Chlorophenyl)-N-[4-(4-chloro-1H-pyrazol-1-yl)-3-sulfamoylphenyl]acetamide]
26 | 36 | > 25000 | NS(=O)(=O)c1cc(NC(=O)Cc2cc(F)cc(F)c2)ccc1-n1cc(Cl)cn1 [Example 83, N-[4-(4-Chloro-1H-pyrazol-1-yl)-3-sulfamoylphenyl]-2-(3,5-difluorophenyl)acetamide]
27 | 29 | > 25000 | NS(=O)(=O)c1cc(NC(=O)Cc2ccc(F)cc2)ccc1-n1cc(Cl)cn1 [Example 84, N-[4-(4-Chloro-1H-pyrazol-1-yl)-3-sulfamoylphenyl]-2-(4-fluorophenyl)acetamide]
28 | 92 | 42 | NS(=O)(=O)c1cc(NC(=O)Cc2ccccc2O)ccc1-n1cc(Cl)cn1 [Example 85, N-[4-(4-Chloro-1H-pyrazol-1-yl)-3-sulfamoylphenyl]-2-(2-hydroxyphenyl)acetamide]
29 | 97 | 353 | NS(=O)(=O)c1cc(NC(=O)Cc2ccc(O)cc2)ccc1-n1cc(Cl)cn1 [Example 86, N-[4-(4-Chloro-1H-pyrazol-1-yl)-3-sulfamoylphenyl]-2-(4-hydroxyphenyl)acetamide]
